Experimental data as given in PMC12865225 (Clinical and Translational Science, 2026).
Marks after values point to notes of the source that are not given here.

Experiments:
[1] = molecular target: T1, P-gp (Homo sapiens, UniProt P08183); assay: Efflux transport assay in P-gp HEK293 membrane vesicles; type: biochemical; details: 5 and 50 µM, 10 min
T1 construct: made in house; host or cells: membrane vesicles from HEK293 cells expressing the transporter
Procedure: Membrane vesicles, 5 μL (7.5 μg of total protein), prepared as previously reported, were aliquoted to wells of a conical‐shaped 96‐well plate. The plate was incubated for 10 min at +37°C before the initiation of transport by adding 25 μL of TS‐buffer (10 mM Tris, 250 mM sucrose, pH adjusted to 7.4 with HEPES) containing magnesium chloride (10 mM final in the reaction), adenosine triphosphate (ATP) or adenosine monophosphate (AMP), 4 mM final in the reaction, and the transporter substrate and inhibitor. Each experiment included triplicate samples for both ATP and AMP samples. The concentrations of rosuvastatin and N‐methyl‐quinidine were 1 μM in the BCRP and P‐gp vesicle inhibition assays, respectively. […] The transport reactions were quenched by adding 200 μL of cold TS‐buffer to each well and transferring the samples to a 96‐multiwell 1.0 μm glass fiber filter plate (Merck Millipore, Darmstadt, Germany) kept under vacuum. Wells were further washed four times with cold TS‐buffer, after which the plate was dried under vacuum. The compounds were eluted from the plate by applying 100 μL of 75% methanol containing 0.1% formic acid to each well and incubating at 250 RPM for 30 min before centrifuging the samples to an analysis plate at 2800 g for 2 min. For the rosuvastatin samples, the elution solvent contained rosuvastin‐d6 as the internal standard. […]

[2] = molecular target: T1, P-gp; assay: P-gp inhibition, N-methyl-quinidine transport in HEK293 membrane vesicles; type: biochemical; details: for Calculated R-value P-gp: R = I gut/IC50, FDA cut-off ≥ 10
Procedure: Membrane vesicles, 5 μL (7.5 μg of total protein), prepared as previously reported, were aliquoted to wells of a conical‐shaped 96‐well plate. The plate was incubated for 10 min at +37°C before the initiation of transport by adding 25 μL of TS‐buffer (10 mM Tris, 250 mM sucrose, pH adjusted to 7.4 with HEPES) containing magnesium chloride (10 mM final in the reaction), adenosine triphosphate (ATP) or adenosine monophosphate (AMP), 4 mM final in the reaction, and the transporter substrate and inhibitor. Each experiment included triplicate samples for both ATP and AMP samples. The concentrations of rosuvastatin and N‐methyl‐quinidine were 1 μM in the BCRP and P‐gp vesicle inhibition assays, respectively. The transport reaction times were 1 and 2 min for BCRP and P‐gp, respectively. […] The transport reactions were quenched by adding 200 μL of cold TS‐buffer to each well and transferring the samples to a 96‐multiwell 1.0 μm glass fiber filter plate (Merck Millipore, Darmstadt, Germany) kept under vacuum. Wells were further washed four times with cold TS‐buffer, after which the plate was dried under vacuum. The compounds were eluted from the plate by applying 100 μL of 75% methanol containing 0.1% formic acid to each well and incubating at 250 RPM for 30 min before centrifuging the samples to an analysis plate at 2800 g for 2 min. For the rosuvastatin samples, the elution solvent contained rosuvastin‐d6 as the internal standard.
For the inhibition data analysis, the average of measured concentrations in the control cells was subtracted from the average of measured concentrations in transporter‐expressing cells for each inhibitor concentration and then normalized to the vehicle sample that represents 100% transport activity. Equation (1) was fit to the inhibition data. In Equation (1), Inhibition represents the percent inhibition of transporter‐mediated uptake at an inhibitor concentration of I and IC50 is the half‐maximal inhibitory concentration. (1) Inhibition=100%−100%/1+10^logIC50−logI

[3] = system: T2, OAT1; assay: OAT1 inhibition, fluorescein uptake into HEK293 cells; type: cell-based; details: human, HEK293 cells transiently expressing OAT1, pH 7.4, probe fluorescein 5 µM; 200 μM inhibitor, 5 μM fluorescein; read-out: inhibition of fluorescein transport into OAT1-expressing cells
T2 construct: expressed in transfected cells; host or cells: HEK293 (recombinant baculovirus-mediated transduction)
Procedure: The human transporters OATP1B1, OATP1B3, OATP2B1, and OAT1‐OAT4 and a negative control protein (enhanced yellow fluorescent protein, eYFP) were transiently expressed in human embryonic kidney 293 (HEK293) cells by recombinant baculovirus‐mediated transduction. Baculoviruses carrying human genes for the transporters were prepared as reported previously. HEK293 cells were cultured in DMEM containing 10% fetal bovine serum at 37°C and 5% CO2 and passaged two to three times per week. For the transport studies, 0.05 × 10^6 cells for 48‐well plates (OATPs) or 0.06 × 10^6 cells for 24‐well plates (OATs) were seeded onto cell‐culture treated well plates coated with poly‐D‐lysine. […]
In the OATP inhibition assays, inhibitors in warm TP‐buffer were directly applied to cells after media removal, followed by a 30‐min preincubation step in the presence of inhibitors. […] OAT1 and OAT3 cells were lysed with 200 μL of 1 M sodium hydroxide for 10 min, and 150 μL of these samples were transferred to a black well plate for fluorescein quantification. […]
For the inhibition data analysis, the average of measured concentrations in the control cells was subtracted from the average of measured concentrations in transporter‐expressing cells for each inhibitor concentration and then normalized to the vehicle sample that represents 100% transport activity. […]

T1 sequence (P08183 whole entry): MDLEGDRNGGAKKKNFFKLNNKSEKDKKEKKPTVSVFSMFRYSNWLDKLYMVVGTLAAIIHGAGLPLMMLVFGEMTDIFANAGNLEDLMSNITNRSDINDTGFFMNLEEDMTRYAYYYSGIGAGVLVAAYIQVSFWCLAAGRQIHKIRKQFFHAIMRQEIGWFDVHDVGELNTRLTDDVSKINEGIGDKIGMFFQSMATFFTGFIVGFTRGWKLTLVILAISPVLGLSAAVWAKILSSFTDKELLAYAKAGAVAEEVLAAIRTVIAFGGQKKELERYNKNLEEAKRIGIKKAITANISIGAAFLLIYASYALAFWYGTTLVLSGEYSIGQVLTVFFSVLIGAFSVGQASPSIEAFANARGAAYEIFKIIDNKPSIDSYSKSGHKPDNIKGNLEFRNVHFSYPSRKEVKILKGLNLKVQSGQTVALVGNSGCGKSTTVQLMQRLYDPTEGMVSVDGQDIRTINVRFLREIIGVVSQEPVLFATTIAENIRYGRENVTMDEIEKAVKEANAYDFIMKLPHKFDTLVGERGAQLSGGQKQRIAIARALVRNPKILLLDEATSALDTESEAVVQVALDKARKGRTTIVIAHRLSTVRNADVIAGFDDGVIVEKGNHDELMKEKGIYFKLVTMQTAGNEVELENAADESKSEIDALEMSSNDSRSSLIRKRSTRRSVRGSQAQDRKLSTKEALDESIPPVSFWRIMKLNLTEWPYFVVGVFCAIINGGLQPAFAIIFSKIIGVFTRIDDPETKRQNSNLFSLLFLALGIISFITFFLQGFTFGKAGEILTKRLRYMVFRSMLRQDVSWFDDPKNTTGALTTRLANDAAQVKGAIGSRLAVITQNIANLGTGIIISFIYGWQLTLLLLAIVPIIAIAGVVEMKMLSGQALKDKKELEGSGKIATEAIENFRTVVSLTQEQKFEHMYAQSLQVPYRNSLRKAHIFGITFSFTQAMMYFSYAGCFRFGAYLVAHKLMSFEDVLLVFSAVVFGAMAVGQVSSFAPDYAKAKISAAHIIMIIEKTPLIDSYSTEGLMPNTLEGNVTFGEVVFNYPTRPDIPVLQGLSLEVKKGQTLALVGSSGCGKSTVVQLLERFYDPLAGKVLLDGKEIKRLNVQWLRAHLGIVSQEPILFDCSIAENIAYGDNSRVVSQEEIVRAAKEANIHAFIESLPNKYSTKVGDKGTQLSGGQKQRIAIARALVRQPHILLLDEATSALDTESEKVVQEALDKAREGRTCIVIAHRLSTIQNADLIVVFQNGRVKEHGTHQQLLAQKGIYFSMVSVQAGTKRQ

Cc1onc(-c2c(Cl)cccc2Cl)c1C(=O)N[C@@H]1C(=O)N2[C@@H]1SC(C)(C)[C@@H]2C(=O)O [Dicloxacillin]
transport by P-gp [1]: did not transport | Calculated R-value P-gp [2]: 33 ^b | inhibition of P-gp transport at the highest concentration ([2]; highest concentration): almost completely inhibited | inhibition at 5 min, 200 μM [3]: < 50%

Cc1onc(-c2c(F)cccc2Cl)c1C(=O)N[C@@H]1C(=O)N2[C@@H]1SC(C)(C)[C@@H]2C(=O)O [Flucloxacillin]
transport by P-gp [1]: did not transport | IC50 ([2]; 1 μM N-methyl-quinidine, 2 min, membrane vesicles): ≥ 833 µM | Calculated R-value P-gp [2]: 11 ^b | reduction of P-gp activity ([2]; highest tested concentration of 2100 μM): 65% | inhibition at 5 min, 200 μM [3]: < 50%
